Measured values from patent US20220202957A1, “LONG-LASTING ANALGESIA VIA TARGETED IN VIVO EPIGENETIC REPRESSION” (The Regents of the University of California, priority 2019, published 2022).

Assays:
[1] = system: carrageenan-induced model of inflammatory pain; assay: Carrageenan-induced inflammatory pain model, thermal paw withdrawal latency (Hargreaves test); assay type: in vivo, mouse; conditions: gabapentin 100 mg/kg i.p.
Protocol: Animals Experiments. All animal procedures were performed in accordance with protocols approved by the Institutional Animal Care and Use Committee (IACUC) of the University of California, San Diego. All mice were acquired from Jackson Laboratory. Two-month-old adult male C57BL/6 mice (25-30 g) were housed with food and water provided ad libitum, under a 12 h light/dark cycle with up to 5 mice per cage. All behavioral tests were performed during the light cycle period.
Intrathecal AAV Injections. Anesthesia was induced with 2.5% isoflurane delivered in equal parts O2 and room air in a closed chamber until a loss of the righting reflex was observed. The lower back of mice was shaven and swabbed with 70% ethanol. Mice were then intrathecally (i.t.) injected using a Hamilton syringe and 30G needle as previously described 104 between vertebrae L4 and L5 with 5 μL of AAV for a total of 1E+12 vg/mouse. A tail flick was considered indicative of appropriate needle placement. […]
Pain Models. […] Paw thickness was measured with a caliper before and 4 h after carrageenan/saline injections as an index of edema/inflammation. […]
Thermal Withdrawal Latency (Hargreaves Test): To determine the acute nociceptive thermal threshold, the Hargreaves' test was conducted using a plantar test device (Ugo Basile, Italy) 108. […] Paw withdrawal latencies were measured with a cutoff time of 30 seconds. […]

[2] = system: paclitaxel-induced neuropathy; assay: Paclitaxel-induced neuropathic pain model, tactile allodynia (von Frey filaments); assay type: in vivo, mouse; conditions: 21 days after i.t. injection, 24 h after last paclitaxel (4 x 8 mg/kg i.p.); gabapentin 100 mg/kg i.p.
Protocol: (§1) Intrathecal AAV Injections. Anesthesia was induced with 2.5% isoflurane delivered in equal parts O2 and room air in a closed chamber until a loss of the righting reflex was observed. The lower back of mice was shaven and swabbed with 70% ethanol. Mice were then intrathecally (i.t.) injected using a Hamilton syringe and 30G needle as previously described 104 between vertebrae L4 and L5 with 5 μL of AAV for a total of 1E+12 vg/mouse. A tail flick was considered indicative of appropriate needle placement. Following injection, all mice resumed motor activity consistent with that observed prior to i.t. injection.
Paclitaxel-induced neuropathy: Paclitaxel (Tocris Biosciences, 1097) was dissolved in a mixture of 1:1:18 [1 volume ethanol/1 volume Cremophor EL (Millipore, 238470)/18 volumes of sterilized 0.9% (W/V) NaCl solution]. […]
Tactile allodynia: For the BzATP pain model, tactile thresholds (allodynia) were assessed 30 minutes, 1, 2, 3, 6, 24 hours after the BzATP injection. For the Paclitaxel model, tactile thresholds (allodynia) were assessed 24 hours and 29 days after the last Paclitaxel injection. […] The 50% probability of withdrawal threshold was assessed using von Frey filaments (Seemes Weinstein von Frey anesthesiometer; Stoelting Co., Wood Dale, Ill., USA) ranging from 2.44 to 4.31 (0.04-2.00 g) in an up-down method, as previously described 107. […]

NaV1.7 = assay: In vivo Nav1.7 repression in mice DRG (L4-L6) by qPCR after intrathecal AAV9; set-up: species or system mouse; conditions: gabapentin benchmarking experiment; 24 h after carrageenan; vs AAV9-mCherry
Protocol: as §1
Tissue collection. […]
Gene Expression Analysis and qPCR. […] Relative mRNA expression was normalized to GAPDH levels and fold change was calculated using the comparative CT (AACT) method and normalized to GAPDH. Mean fold change and SD were calculated using Microsoft Excel.
Having established in vitro Nav1.7 repression, testing the effectiveness of the best ZFP-KRAB and KRAB-dCas9 constructs from the in vitro screens (Zinc-Finger-4-KRAB and KRAB-dCas9-dual-gRNA) in a carrageenan-induced model of inflammatory pain was performed. […] After 21 days, thermal pain sensitivity was measured to establish a baseline response threshold. […]

Nav1.7 transcript = assay: In vitro Nav1.7 repression by qPCR in transfected Neuro2a cells; assay type: cell-based, mouse; conditions: qPCR relative to GAPDH, KRAB-dCas9 constructs compared to the non-targeting gRNA control
Protocol: Mammalian Cell Culture. Neuro2a cells were grown in EMEM supplemented with 10% fetal bovine serum (FBS) and 1% Antibiotic-Antimycotic (Thermo Fisher Scientific) in an incubator at 37° C. and 5% CO2 atmosphere.
Lipid-Mediated Cell Transfections. One day prior to transfection, Neuro2a cells were seeded in a 24-well plate at a cell density of 1 or 2E+5 cells per well. […] of each plasmid was added to 25 μL of Opti-MEM medium, followed by addition of 25 μL of Opti-MEM containing 2 μL of Lipofectamine 2000. The mixture was incubated at room temperature for 15 min. The entire solution was then added to the cells in a 24-well plate and mixed by gently swirling the plate. Media was changed after 24 h, and the plate was incubated at 37° C. for 72 h in a 5% CO2 incubator. Cells were harvested, spun down, and frozen at […].
Gene Expression Analysis and qPCR. RNA from Neuro2a cells was extracted using Rneasy Kit (QIAGEN; 74104) and from DRG using Rneasy Micro Kit (QIAGEN; 74004). cDNA was synthesized from RNA using Protoscript II Reverse Transcriptase Kit (NEB; E6560L). […] Relative mRNA expression was normalized to GAPDH levels and fold change was calculated using the comparative CT (AACT) method and normalized to GAPDH. Mean fold change and SD were calculated using Microsoft Excel. […]

Compound	PWL of carrageenan-injected paws at each time point vs AAV9-mCherry control (two-way ANOVA) ([1]; 30 min, 1, 2, 4, 24 h after carrageenan, AAV9 1E+12 vg/mouse i.t.)	PWL (AUC of thermal hyperalgesia) in carrageenan-injected paws vs AAV9-mCherry control ([1]; gabapentin benchmarking experiment, day 21)	50% tactile withdrawal threshold / tactile allodynia (von Frey) [2]	repression of Nav1.7 in DRG (L4-L6) by qPCR, significance (NaV1.7)	repression of the Nav1.7 transcript (Nav1.7 transcript)
NCC1(CC(=O)O)CCCCC1 [gabapentin]	at the 30 minute, 1 hour, and four hour time points, but not the 24 hour time point	significant increase in PWL	increased withdrawal thresholds	significant repression of Nav1.7	–
gRNA-2: guide RNA spacer GCAGGTGCACTCACCGGGT (SEQ ID NO: 130), used with KRAB-dCas9 (listed as DNA, chemistry not given here)	–	–	–	–	56%
